Data: patent US11400058B2, “Intravenous formulations of coenzyme Q10 (CoQ10) and methods of use thereof” (Berg LLC, priority 2010, dated 2022)
Marks after values point to notes of the source that are not given here.

Test: 4-week repeat-dose toxicology study in rats with 2-week recovery (Study 20000328)
Details: for Died or Sacrificed Moribund: animals of 15
[1] = 62.5 mg/kg M, end of dosing, animals of 10
[2] = 62.5 mg/kg M, end of recovery, animals of 5
[3] = 125 mg/kg F, end of dosing, animals of 10
[4] = 125 mg/kg F, end of recovery, animals of 5

## COC1=C(OC)C(=O)C(C/C=C(\C)CC/C=C(\C)CC/C=C(\C)CC/C=C(\C)CC/C=C(\C)CC/C=C(\C)CC/C=C(\C)CC/C=C(\C)CC/C=C(\C)CCC=C(C)C)=C(C)C1=O [CoQ10, Coenzyme Q10]
[1]
  Spleen Histiocytic Infiltration, Mild: 0
  Spleen Histiocytic Infiltration, Moderate: 1
62.5 mg/kg M, end of recovery
  ALT: 20 IU/L
  APPT: 16.7 s
  AST: 79 IU/L
  Body Weight, percent difference from controls: +7.4%
  Food Consumption, percent difference from controls: +5.8%
  GGT: 0.00 IU/L
  Liver weight (absolute), percent difference from controls: +5.0%
  Spleen weight (absolute), percent difference from controls: −22.2%
[2]
  Adrenal Gland Vacuolation: 5
  Adrenal Gland Vacuolation, Marked: 0
  Adrenal Gland Vacuolation, Mild: 3
  Adrenal Gland Vacuolation, Minimal: 2
  Adrenal Gland Vacuolation, Moderate: 0
  Gross Pathology: Enlarged Spleen: 0
  Gross Pathology: Pale Iliac Lymph Node: 2
  Gross Pathology: Pale Liver: 2
  Gross Pathology: Pale Pancreatic Lymph Node: 1
  Liver Focal Necrosis: 0
  Liver Focal Necrosis, Mild: 0
  Liver Focal Necrosis, Minimal: 0
  Liver Histiocytic Infiltration: 1
  Liver Histiocytic Infiltration, Mild: 0
  Liver Histiocytic Infiltration, Minimal: 1
  Liver Histiocytic Infiltration, Moderate: 0
  Liver Multifocal Necrosis: 0
  Liver Multifocal Necrosis, Mild: 0
  Liver Multifocal Necrosis, Moderate: 0
  Liver Vacuolation: 5
  Liver Vacuolation, Mild: 1
  Liver Vacuolation, Minimal: 4
  Liver Vacuolation, Moderate: 0
  Lymph Node, Man. Histiocytic Infiltration: 4
  Lymph Node, Man. Histiocytic Infiltration, Mild: 0
  Lymph Node, Man. Histiocytic Infiltration, Minimal: 4
  Lymph Node, Man. Histiocytic Infiltration, Moderate: 0
  Lymph Node, Mes. Histiocytic Infiltration: 5
  Lymph Node, Mes. Histiocytic Infiltration, Mild: 1
  Lymph Node, Mes. Histiocytic Infiltration, Minimal: 4
  Spleen Histiocytic Infiltration: 2
  Spleen Histiocytic Infiltration, Marked: 0
  Spleen Histiocytic Infiltration, Mild: 0
  Spleen Histiocytic Infiltration, Minimal: 2
  Spleen Histiocytic Infiltration, Moderate: 0
125 mg/kg F
  Died or Sacrificed Moribund: 0
125 mg/kg F, end of dosing
  ALT: 20 IU/L
  APPT: 14.4* seconds
  AST: 76* IU/L
  Body Weight, percent difference from controls: −5.5%
  Eosinophils: 0.08 10^3/cmm
  Erythrocytes: 6.90* 10^6/cmm
  Food Consumption, percent difference from controls: −12.5* %
  GGT: 0.53 IU/L
  Hematocrit: 39.1* %
  Hemoglobin: 13.5 g/dL
  Leukocytes: 9.49 10^3/cmm
  Liver weight (absolute), percent difference from controls: −0.6%
  Lymphocytes: 7.35 10^3/cmm
  Neutrophils: 1.64 10^3/cmm
  Spleen weight (absolute), percent difference from controls: −11.2%
[3]
  Bone Marrow, Sternum Hyperplasia: 0
  Bone Marrow, Sternum Hyperplasia, Mild: 0
  Bone Marrow, Sternum Hyperplasia, Minimal: 0
  Gross Pathology: Enlarged Pancreatic Lymph Nodes: 1
  Gross Pathology: Pale Adrenal: 0
  Gross Pathology: Pale Liver: 10
  Gross Pathology: Pale Lymph Nodes: 0
  Gross Pathology: Pale Ovaries: 1
  Gross Pathology: Pale Pituitary: 0
  Gross Pathology: Pale SQ Skin: 3
  Liver Focal Necrosis: 0
  Liver Focal Necrosis, Minimal: 0
  Liver Histiocytic Infiltration: 9
  Liver Histiocytic Infiltration, Mild: 7
  Liver Histiocytic Infiltration, Minimal: 1
  Liver Histiocytic Infiltration, Moderate: 1
  Liver Vacuolation: 10
  Liver Vacuolation, Mild: 4
  Liver Vacuolation, Minimal: 6
  Lymph Node, Man. Histiocytic Infiltration: 3
  Lymph Node, Man. Histiocytic Infiltration, Mild: 0
  Lymph Node, Man. Histiocytic Infiltration, Minimal: 2
  Lymph Node, Man. Histiocytic Infiltration, Moderate: 1
  Lymph Node, Mes. Histiocytic Infiltration: 10
  Lymph Node, Mes. Histiocytic Infiltration, Mild: 5
  Lymph Node, Mes. Histiocytic Infiltration, Minimal: 5
  Lymph Node, Mes. Histiocytic Infiltration, Moderate: 0
  Ovary Histiocytic Infiltration: 10
  Ovary Histiocytic Infiltration, Mild: 0
  Ovary Histiocytic Infiltration, Minimal: 10
  Ovary Histiocytic Infiltration, Moderate: 0
  Skin, Dermis Histiocytic Infiltration: 2
  Skin, Dermis Histiocytic Infiltration, Marked: 0
  Skin, Dermis Histiocytic Infiltration, Mild: 1
  Skin, Dermis Histiocytic Infiltration, Moderate: 1
  Skin, SQ Histiocytic Infiltration: 2
  Skin, SQ Histiocytic Infiltration, Mild: 2
  Spleen Histiocytic Infiltration: 9
  Spleen Histiocytic Infiltration, Marked: 1
  Spleen Histiocytic Infiltration, Mild: 4
  Spleen Histiocytic Infiltration, Moderate: 3
125 mg/kg F, end of recovery
  ALT: 21 IU/L
  APPT: 15.4 s
  AST: 68 IU/L
  Body Weight, percent difference from controls: −3.9%
  Food Consumption, percent difference from controls: −10.5%
  GGT: 0.63* IU/L
  Liver weight (absolute), percent difference from controls: +3.5%
  Spleen weight (absolute), percent difference from controls: −3.4%
[4]
  Adrenal Gland Vacuolation: 5
  Adrenal Gland Vacuolation, Marked: 0
  Adrenal Gland Vacuolation, Mild: 4
  Adrenal Gland Vacuolation, Minimal: 0
  Adrenal Gland Vacuolation, Moderate: 1
  Gross Pathology: Enlarged Spleen: 0
  Gross Pathology: Pale Iliac Lymph Node: 3
  Gross Pathology: Pale Liver: 5
  Gross Pathology: Pale Ovaries: 0
  Gross Pathology: Pale Pancreatic Lymph Node: 2
  Liver Focal Necrosis: 0
  Liver Focal Necrosis, Mild: 0
  Liver Focal Necrosis, Minimal: 0
  Liver Histiocytic Infiltration: 5
  Liver Histiocytic Infiltration, Mild: 3
  Liver Histiocytic Infiltration, Minimal: 2
  Liver Histiocytic Infiltration, Moderate: 0
  Liver Multifocal Necrosis: 1
  Liver Multifocal Necrosis, Mild: 1
  Liver Multifocal Necrosis, Moderate: 0
  Liver Vacuolation: 5
  Liver Vacuolation, Mild: 4
  Liver Vacuolation, Minimal: 0
  Liver Vacuolation, Moderate: 1
  Lymph Node, Man. Histiocytic Infiltration: 1
  Lymph Node, Man. Histiocytic Infiltration, Mild: 0
  Lymph Node, Man. Histiocytic Infiltration, Minimal: 2
  Lymph Node, Man. Histiocytic Infiltration, Moderate: 0
  Lymph Node, Mes. Histiocytic Infiltration: 5
  Lymph Node, Mes. Histiocytic Infiltration, Mild: 1
  Lymph Node, Mes. Histiocytic Infiltration, Minimal: 4
  Ovary Histiocytic Infiltration: 5
  Ovary Histiocytic Infiltration, Mild: 2
  Ovary Histiocytic Infiltration, Minimal: 3
  Ovary Histiocytic Infiltration, Moderate: 0
  Spleen Histiocytic Infiltration: 2
  Spleen Histiocytic Infiltration, Marked: 0
  Spleen Histiocytic Infiltration, Mild: 0
  Spleen Histiocytic Infiltration, Minimal: 2
  Spleen Histiocytic Infiltration, Moderate: 0
125 mg/kg M
  Died or Sacrificed Moribund: 0
125 mg/kg M, end of dosing
  ALT: 25 IU/L
  APPT: 15.9* seconds
  AST: 83 IU/L
  Body Weight, percent difference from controls: −8.7* %
  Eosinophils: 0.08 10^3/cmm
